Source: publication PMC9405973, “Altered Conformational Landscape upon Sensing Guanine Nucleotides in a Disease Mutant of Elongation Factor-like 1 (EFL1) GTPase” (Biomolecules, 2022)

Biological target: T1, Efl1 R1086Q in complex with Sdo1 and 60S subunits (Saccharomyces cerevisiae, UniProt P53893, R1086Q)
T1 construct: made in house; host or cells: Efl1: Saccharomyces cerevisiae; Sdo1: Escherichia coli C41; 60S subunits purified from S. cerevisiae strain JD1370
T1 sequence (P53893 1-1110 R1086Q): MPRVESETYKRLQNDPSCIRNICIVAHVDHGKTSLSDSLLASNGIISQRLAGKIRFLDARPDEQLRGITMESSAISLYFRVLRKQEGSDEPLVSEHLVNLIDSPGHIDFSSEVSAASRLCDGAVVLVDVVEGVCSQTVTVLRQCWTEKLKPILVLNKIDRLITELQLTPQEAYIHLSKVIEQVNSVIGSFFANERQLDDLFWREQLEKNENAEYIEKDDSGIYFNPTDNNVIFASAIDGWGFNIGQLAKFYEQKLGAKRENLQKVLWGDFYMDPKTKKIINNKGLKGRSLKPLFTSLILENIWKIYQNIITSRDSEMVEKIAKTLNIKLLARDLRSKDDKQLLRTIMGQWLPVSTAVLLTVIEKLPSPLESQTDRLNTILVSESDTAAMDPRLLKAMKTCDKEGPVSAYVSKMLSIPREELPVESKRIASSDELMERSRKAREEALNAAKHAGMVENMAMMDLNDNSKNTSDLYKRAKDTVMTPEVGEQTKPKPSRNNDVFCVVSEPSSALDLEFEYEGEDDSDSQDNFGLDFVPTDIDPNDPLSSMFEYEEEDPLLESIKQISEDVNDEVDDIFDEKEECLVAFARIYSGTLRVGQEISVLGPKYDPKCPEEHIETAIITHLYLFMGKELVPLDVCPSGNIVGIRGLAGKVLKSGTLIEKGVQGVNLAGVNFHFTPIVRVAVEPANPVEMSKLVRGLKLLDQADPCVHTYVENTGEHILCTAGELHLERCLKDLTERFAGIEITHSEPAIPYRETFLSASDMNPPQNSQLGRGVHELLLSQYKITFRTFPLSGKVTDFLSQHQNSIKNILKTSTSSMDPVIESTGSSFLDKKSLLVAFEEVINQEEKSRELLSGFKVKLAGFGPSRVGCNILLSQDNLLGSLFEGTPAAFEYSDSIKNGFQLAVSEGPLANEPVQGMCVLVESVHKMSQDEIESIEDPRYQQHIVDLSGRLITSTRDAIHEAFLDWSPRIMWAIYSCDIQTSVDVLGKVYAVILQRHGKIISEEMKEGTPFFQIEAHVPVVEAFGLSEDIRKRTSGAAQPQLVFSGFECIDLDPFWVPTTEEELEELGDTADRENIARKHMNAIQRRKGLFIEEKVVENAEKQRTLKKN
T1 sequence (Q07953 1-250 partner): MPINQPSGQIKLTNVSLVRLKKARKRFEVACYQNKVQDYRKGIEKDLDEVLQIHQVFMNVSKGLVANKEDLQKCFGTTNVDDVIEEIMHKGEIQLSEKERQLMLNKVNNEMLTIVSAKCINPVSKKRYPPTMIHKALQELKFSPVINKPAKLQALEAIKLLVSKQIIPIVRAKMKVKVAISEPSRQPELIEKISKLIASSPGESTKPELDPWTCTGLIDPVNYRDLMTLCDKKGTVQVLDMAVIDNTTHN
Test: Steady state fluorescence binding of mant-GTP to Efl1 R1086Q in complex with Sdo1 and 60S subunits
Details: 25 °C, one-binding-site model; read-out: dissociation constant (Kd)
Procedure: We measured the binding of different Efl1 constructs present in complex with Sdo1 and 60S subunits to the fluorescence GTP analogue, mant-GTP, by following the increase in the fluorescence signal after excitation at 355 nm. Fluorescence intensities were plotted as a function of increasing nucleotide concentrations, and the dissociation constant (Kd) was calculated by fitting the data to a one-binding-site model (Supplementary Figure S1B).
Hydrolysis of GTP was measured using the Enzchek Phosphate Assay kit (Molecular Probes) as described by Webb. Standard reactions consisted of 100 µL containing 6 µM of Efl1 R1086Q and Efl1 L910K, 0.3 mM MESG, 1.0 U purine nucleoside phosphorylase (PNP) and the indicated amounts of GTP. […]
Reactions were initiated and the GTPase was added after 3 min. Time courses were followed by recording the change in absorbance at 360 nm in a Cary 60 UV -Vis spectrophotometer (Agilent Technologies). Background absorbance was recorded prior to the addition of the GTPase and subtracted from the sample signals. The slope of the measured time courses corresponded to the GTP hydrolysis rate. […] Data were analysed by nonlinear regression to the M ichaelis-Menten equation with the program Origin Version 5.0 (OriginLab, Co., Northampton, MA). […]
Steady state fluorescence measurements […]
Maximum emission at 440 nm was replotted as a function of nucleotide concentration and analysed

`CNc1ccccc1C(=O)O[C@H]1[C@@H](O)[C@H](n2cnc3c(=O)[nH]c(N)nc32)O[C@@H]1COP(=O)(O)OP(=O)(O)OP(=O)(O)O` [mant-GTP] gave a Kd of 32 µM.
